From ChEMBL document CHEMBL4138123, “Design, synthesis and biological evaluation of novel pyrazolochalcones as potential modulators of PI3K/Akt/mTOR pathway and inducers of apoptosis in breast cancer cells” (Eur J Med Chem, 2017)

How the values were obtained:
Type in all cases: functional
[1] = test system: NCI-H23; assay: Cytotoxicity against human NCI-H23 cells assessed as growth inhibition after 48 hrs by sulforhodamine B assay; conditions: NCI-H23, 48 h; for CC50: read-out: LC50 (the source's name)
[2] = test system: SF-268; assay: Cytotoxicity against human SF268 cells assessed as growth inhibition after 48 hrs by sulforhodamine B assay; conditions: SF-268, 48 h; for CC50: read-out: LC50 (the source's name)
[3] = test system: SK-MEL-5; assay: Cytotoxicity against human SK-MEL-5 cells assessed as growth inhibition after 48 hrs by sulforhodamine B assay; conditions: SK-MEL-5, 48 h
[4] = test system: SK-OV-3; assay: Cytotoxicity against human SKOV3 cells assessed as growth inhibition after 48 hrs by sulforhodamine B assay; conditions: SK-OV-3, 48 h
[5] = test system: SN12C; assay: Cytotoxicity against human SN12C cells assessed as growth inhibition after 48 hrs by sulforhodamine B assay
[6] = test system: SK-MEL-5; assay: Cytotoxicity against human SK-MEL-5 cells assessed as cell growth at 0.01 uM after 48 hrs by sulforhodamine B assay relative to control; conditions: SK-MEL-5, 48 h, read-out: Activity
[7] = test system: Malme-3M; assay: Cytotoxicity against human MALME-3M cells assessed as cell growth at 0.01 uM after 48 hrs by sulforhodamine B assay relative to control; conditions: read-out: Activity
[8] = test system: RPMI-8226; assay: Cytotoxicity against human RPMI8226 cells assessed as cell growth at 0.01 uM after 48 hrs by sulforhodamine B assay relative to control; conditions: RPMI-8226, 48 h, read-out: Activity
[9] = test system: MOLT-4; assay: Cytotoxicity against human MOLT4 cells assessed as cell growth at 0.01 uM after 48 hrs by sulforhodamine B assay relative to control; conditions: MOLT-4, 48 h, read-out: Activity
[10] = test system: BT-549; assay: Cytotoxicity against human BT549 cells assessed as cell growth at 0.01 uM after 48 hrs by sulforhodamine B assay relative to control; conditions: BT-549, 48 h, read-out: Activity
[11] = test system: A549; assay: Cytotoxicity against human A549/ATCC cells assessed as cell growth at 0.1 uM after 48 hrs by sulforhodamine B assay relative to control; conditions: A549, 48 h, read-out: Activity
[12] = test system: SW-620; assay: Cytotoxicity against human SW620 cells assessed as cell growth at 0.1 uM after 48 hrs by sulforhodamine B assay relative to control; conditions: SW-620, 48 h, read-out: Activity
[13] = test system: M14; assay: Cytotoxicity against human M14 cells assessed as cell growth at 0.1 uM after 48 hrs by sulforhodamine B assay relative to control; conditions: M14, 48 h, read-out: Activity
[14] = test system: CAKI-1; assay: Cytotoxicity against human Caki1 cells assessed as cell growth at 0.1 uM after 48 hrs by sulforhodamine B assay relative to control; conditions: CAKI-1, 48 h, read-out: Activity
[15] = test system: Hs-578T; assay: Cytotoxicity against human Hs 578T cells assessed as cell growth at 0.1 uM after 48 hrs by sulforhodamine B assay relative to control; conditions: read-out: Activity
[16] = test system: NCI-H522; assay: Cytotoxicity against human NCI-H522 cells assessed as cell growth at 1 uM after 48 hrs by sulforhodamine B assay relative to control; conditions: NCI-H522, 48 h, read-out: Activity
[17] = test system: HCT-15; assay: Cytotoxicity against human HCT15 cells assessed as cell growth at 1 uM after 48 hrs by sulforhodamine B assay relative to control; conditions: HCT-15, 48 h, read-out: Activity
[18] = test system: OVCAR-4; assay: Cytotoxicity against human OVCAR4 cells assessed as cell growth at 1 uM after 48 hrs by sulforhodamine B assay relative to control; conditions: OVCAR-4, 48 h, read-out: Activity
[19] = test system: A498; assay: Cytotoxicity against human A498 cells assessed as cell growth at 1 uM after 48 hrs by sulforhodamine B assay relative to control; conditions: A498, 48 h, read-out: Activity
[20] = test system: TK-10; assay: Cytotoxicity against human TK10 cells assessed as cell growth at 1 uM after 48 hrs by sulforhodamine B assay relative to control; conditions: TK-10, 48 h, read-out: Activity
[21] = test system: MDA-MB-231; assay: Cytotoxicity against human MDA-MB-231 cells assessed as cell growth at 1 uM after 48 hrs by sulforhodamine B assay relative to control; conditions: MDA-MB-231, 48 h, read-out: Activity
[22] = test system: MDA-MB-468; assay: Cytotoxicity against human MDA-MB-468 cells assessed as cell growth at 1 uM after 48 hrs by sulforhodamine B assay relative to control; conditions: MDA-MB-468, 48 h, read-out: Activity
[23] = test system: SR; assay: Cytotoxicity against human SR cells assessed as cell growth at 10 uM after 48 hrs by sulforhodamine B assay relative to control; conditions: read-out: Activity
[24] = test system: NCI-H322M; assay: Cytotoxicity against human NCI-H322M cells assessed as cell growth at 10 uM after 48 hrs by sulforhodamine B assay relative to control; conditions: read-out: Activity
[25] = test system: SW-620; assay: Cytotoxicity against human SW620 cells assessed as cell growth at 10 uM after 48 hrs by sulforhodamine B assay relative to control; conditions: SW-620, 48 h, read-out: Activity
[26] = test system: MDA-MB-435; assay: Cytotoxicity against human MDA-MB-435 cells assessed as cell growth at 10 uM after 48 hrs by sulforhodamine B assay relative to control; conditions: MDA-MB-435, 48 h, read-out: Activity
[27] = test system: UACC-62; assay: Cytotoxicity against human UACC62 cells assessed as cell growth at 10 uM after 48 hrs by sulforhodamine B assay relative to control; conditions: UACC-62, 48 h, read-out: Activity
[28] = test system: Hs-578T; assay: Cytotoxicity against human Hs 578T cells assessed as cell growth at 10 uM after 48 hrs by sulforhodamine B assay relative to control; conditions: read-out: Activity
[29] = test system: CCRF-CEM; assay: Cytotoxicity against human CCRF-CEM cells assessed as cell growth at 100 uM after 48 hrs by sulforhodamine B assay relative to control; conditions: read-out: Activity
[30] = test system: NCI-H226; assay: Cytotoxicity against human NCI-H226 cells assessed as cell growth at 100 uM after 48 hrs by sulforhodamine B assay relative to control; conditions: NCI-H226, 48 h, read-out: Activity
[31] = test system: NCI-H23; assay: Cytotoxicity against human NCI-H23 cells assessed as cell growth at 100 uM after 48 hrs by sulforhodamine B assay relative to control; conditions: NCI-H23, 48 h, read-out: Activity
[32] = test system: HCT-116; assay: Cytotoxicity against human HCT116 cells assessed as cell growth at 100 uM after 48 hrs by sulforhodamine B assay relative to control; conditions: HCT-116, 48 h, read-out: Activity
[33] = test system: OVCAR-4; assay: Cytotoxicity against human OVCAR4 cells assessed as cell growth at 100 uM after 48 hrs by sulforhodamine B assay relative to control; conditions: OVCAR-4, 48 h, read-out: Activity
[34] = test system: NCI/ADR-RES; assay: Cytotoxicity against human NCI/ADR-RES cells assessed as cell growth at 100 uM after 48 hrs by sulforhodamine B assay relative to control; conditions: read-out: Activity
[35] = test system: TK-10; assay: Cytotoxicity against human TK10 cells assessed as cell growth at 100 uM after 48 hrs by sulforhodamine B assay relative to control; conditions: TK-10, 48 h, read-out: Activity

| SMILES | TGI [1] [µM] | CC50 [1] [µM] | TGI [2] [µM] | CC50 [2] [µM] | LC50 (concentration killing 50% of cells) [3] [µM] | TGI [3] [µM] | LC50 [4] [µM] | TGI [4] [µM] | LC50 [5] [µM] | TGI [5] [µM] | growth at 0.01 µM [6] [%] | growth at 0.01 µM [7] [%] | growth at 0.01 µM [8] [%] | growth at 0.01 µM [9] [%] | growth at 0.01 µM [10] [%] | growth at 0.1 µM [11] [%] | growth at 0.1 µM [12] [%] | growth at 0.1 µM [13] [%] | growth at 0.1 µM [14] [%] | growth at 0.1 µM [15] [%] | also measured |
| --- | --- | --- | --- | --- | --- | --- | --- | --- | --- | --- | --- | --- | --- | --- | --- | --- | --- | --- | --- | --- | --- |
| COc1cc(C(=O)/C=C/c2cc(-c3cc(OC)c(OC)c(OC)c3)n[nH]2)cc(OC)c1OC | 9.9 | 64.3 | 4.58 | 14.2 | 5.49 | 2.94 | 33.4 | 11.1 | 5.99 | 2.97 | 96 | 100 | 97 | 104 | 102 | 94 | 97 | 109 | 89 | 90 | growth at 1 µM [16]: 29%; growth at 1 µM [17]: 76%; growth at 1 µM [18]: 79%; growth at 1 µM [19]: 80%; growth at 1 µM [20]: 80%; growth at 1 µM [21]: 73%; growth at 1 µM [22]: 59%; growth at 10 µM [23]: 12%; growth at 10 µM [24]: -41%; growth at 10 µM [25]: -89%; growth at 10 µM [26]: -90%; growth at 10 µM [27]: -69%; growth at 10 µM [28]: 10%; growth at 100 µM [29]: 2%; growth at 100 µM [30]: -50%; growth at 100 µM [31]: -62%; growth at 100 µM [32]: -88%; growth at 100 µM [33]: -98%; growth at 100 µM [34]: -24%; growth at 100 µM [35]: -99% |
| COc1cc(-c2cc(/C=C/C(=O)c3ccc(F)c(F)c3)[nH]n2)cc(OC)c1OC | 8.5 | > 100 | > 100 | > 100 | 26.7 | 6.41 | > 100 | 58.6 | > 100 | 25.5 | 98 | 93 | 94 | 108 | 101 | 98 | 97 | 91 | 94 | 97 | growth at 1 µM [16]: 71%; growth at 1 µM [17]: 88%; growth at 1 µM [18]: 67%; growth at 1 µM [19]: 81%; growth at 1 µM [20]: 85%; growth at 1 µM [21]: 74%; growth at 1 µM [22]: 79%; growth at 10 µM [23]: 11%; growth at 10 µM [24]: 18%; growth at 10 µM [25]: 12%; growth at 10 µM [26]: 5%; growth at 10 µM [27]: -13%; growth at 10 µM [28]: 21%; growth at 100 µM [29]: -4%; growth at 100 µM [30]: -65%; growth at 100 µM [31]: -27%; growth at 100 µM [32]: -52%; growth at 100 µM [33]: -3%; growth at 100 µM [34]: -5%; growth at 100 µM [35]: -37% |
